Experimental data reported in patent publication US5175159A, “3-substituted-1,4-benzodiazepines as oxytocin antagonists” (Merck & Co., Inc., priority 1990, dated 1992).
Where two headings read alike, the source gives them in different places.

Target: T1, oxytocin receptor (Rattus norvegicus, UniProt P70536)
T1 construct: crude membrane preparation of rat uterus as the source of oxytocin receptors; from tissue; host or cells: rat uterus, crude membrane preparation
T1 sequence (P70536 1-388): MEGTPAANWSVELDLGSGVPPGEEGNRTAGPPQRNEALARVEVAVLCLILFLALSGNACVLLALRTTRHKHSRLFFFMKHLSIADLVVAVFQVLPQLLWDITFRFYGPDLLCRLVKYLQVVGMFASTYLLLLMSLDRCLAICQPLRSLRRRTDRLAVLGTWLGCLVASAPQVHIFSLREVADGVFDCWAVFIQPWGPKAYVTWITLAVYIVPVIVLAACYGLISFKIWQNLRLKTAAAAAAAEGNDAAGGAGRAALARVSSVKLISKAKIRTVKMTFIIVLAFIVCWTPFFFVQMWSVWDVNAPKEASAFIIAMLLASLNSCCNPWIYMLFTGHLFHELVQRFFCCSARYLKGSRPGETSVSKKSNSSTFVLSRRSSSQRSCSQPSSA
Assay: [^3H]Oxytocin Binding Assay (crude membrane preparation of rat uterus)
Conditions: for inhibition at 1 µM: read-out: % inhibition @ μM conc. (1 μM), [^3H]oxytocin binding, rat uterus membranes
Excerpt: The biological activities of the compounds of Formula I have been evaluated using a[^3 H]oxytocin binding assay.
[^3 H]Oxytocin Binding Assay
Oxytocin receptors have been identified in mammalian uterine tissue through the use of in vitro radioligand binding assays. These receptor binding sites mediate the contractile response of the uterine myometrium to oxytocin. The present radioligand binding procedure has been adapted from the methods of Soloff, M. S. and Grzonka, Z., Endocrinology 119: 1564-1569 (1986) and Fuchs, A-R., Fuchs, F., and Soloff, M. S., J. Clinical Endocrinology and Metabolism 60: 37-41 (1985) and is utilized here to measure the relative affinity of test compounds for the oxytocin receptor labeled by [^3 H]oxytocin. The assay uses a crude membrane preparation of rat uterus as the source of oxytocin receptors. The IC50 values (concentration of test compound to inhibit [^3 H]oxytocin binding by 50%) are determined by incubating uterine tissue with [^3 H]oxytocin in the presence or absence of varying concentrations of compound.

[1] = [^3H]oxytocin binding, rat uterus membranes, @ 10 μM, read-out: % inhibition @ μM conc. (10 μM)
[2] = read-out: % inhibition @ μM conc. (10 μM), [^3H]oxytocin binding, rat uterus membranes, @ 10 μM

SMILES	IC50	inhibition at 10 µM [2]	further results
CN1C(=O)C(NC(=O)NC2C3CC4CC(C3)CC2C4)N=C(c2ccccc2)c2ccccc21 (racemic) [Example 1, (+/-)-N-(2,3-DIHYDRO-1-METHYL-2-OXO-5-PHENYL-1H-1,4-BENZODIAZEPIN-3-YL)-N'- TRICYCLO(3.3.1.1(3,7))DEC-2-YL-UREA]	3900 nM	–	–
CN1C(=O)C(NC(=O)C23CC4CC(CC(C4)C2)C3)N=C(c2ccccc2)c2ccccc21 (racemic) [Example 4, (+/-)-N-(2,3-DIHYDRO-1-METHYL-2-OXO-5-PHENYL-1H-1,4-BENZODIAZEPIN-3-YL)-TRICYCLO(3.3.1.1(3,7))DECANE-1-CARBOXAMIDE]	13800 nM	–	–
CN1C(=O)C(NC(=O)CC23CC4CC(CC(C4)C2)C3)N=C(c2ccccc2)c2ccccc21 (racemic) [Example 5, (+/-)-N-(2,3-DIHYDRO-1-METHYL-2-OXO-5-PHENYL-1H-1,4-BENZODIAZEPIN-3-YL)-TRICYCLO(3.3.1.1(3,7))DECANE-1-ACETAMIDE)]	2800 nM	–	–
CN1C(=O)C(NC(=O)NCC23CC4CC(CC(C4)C2)C3)N=C(c2ccccc2)c2ccccc21 (racemic) [Example 6, (+/-)-N-(2,3-DIHYDRO-1-METHYL-2-OXO-5-PHENYL-1H-1,4-BENZODIAZEPIN-3-YL)-N'- TRICYCLO(3.3.1.1(3,7))DEC-1-YL-METHYL)-UREA]	2700 nM	–	–
CN1C(=O)C(NC(=O)CC23CC4CC(CC(C)(C4)C2)C3)N=C(c2ccccc2)c2ccccc21 (racemic) [Example 7, (+/-)-N-(2,3-DIHYDRO-1-METHYL-2-OXO-5-PHENYL-1H-1,4-BENZODIAZEPIN-3-YL)-3-METHYLTRICYCLO(3.3.1.1(3,7))DECANE-1-ACETAMIDE]	4700 nM	–	–
CN1C(=O)CN(C(=O)NCC23CC4CC(CC(C4)C2)C3)C(c2ccccc2)c2ccccc21 (racemic) [Example 12, (+/-)-1,2,3,5-TETRAHYDRO-1-METHYL-2-OXO-5-PHENYL-N-(TRICYCLO(3.3.1.1.(3,7))DEC-1-YLMETHYL)-4H-1,4-BENZODIAZEPINE-4-CARBOXAMIDE]	–	–	inhibition at 10 µM [1]: 66%
CN1C(=O)CN(C(=O)NC2C3CC4CC(C3)CC2C4)C(c2ccccc2)c2ccccc21 (racemic) [Example 13, (+/-)-1,2,3,5-TETRAHYDRO-1-METHYL-2-OXO-5-PHENYL-N-TRICYCLO(3.3.1.1(3,7))DEC-2-YL-4H-1,4-BENZODIAZEPINE-4-CARBOXAMIDE]	–	–	inhibition at 10 µM [1]: 48%
CN1C(=O)[C@H](NC(=O)NC23CC4CC(CC(C4)C2)C3)N=C(c2ccccc2)c2ccccc21 (single isomer, unassigned) [Example 3]	1690 nM	–	–
CCOC(=O)[C@@H](NC(=O)NC1N=C(c2ccccc2)c2ccccc2N(C)C1=O)c1ccccc1 (single isomer, unassigned) [Example 11, ALPHA.-((((2,3-DIHYDRO-1-METHYL-2-OXO-5-PHENYL-1H-1,4-BENZODIAZEPIN-3-YL)AMINO)CARBONYL)AMINO)BEN[…] ETHYL ESTER, ALPHA ISOMER]	–	46%	–
CN1C(=O)[C@H](NS(=O)(=O)C[C@@]23CC[C@@H](CC2O)C3(C)C)N=C(c2ccccc2)c2ccccc21 (single isomer, unassigned) [Example 16A, N-(2,3-DIHYDRO-1-METHYL-2-OXO-5-PHENYL-1H-1,4-BENZODIAZEPIN-3-YL)-2-HYDROXY-7,7-DIMETHYL-BICYCLO(2.2.1) HEPTANE-1-METHANESULFONAMIDE, ISOMER A AND ISOMER B]	1400 nM	–	–
CN1C(=O)C(NS(=O)(=O)CC23CCC(CC2O)C3(C)C)N=C(c2ccccc2)c2ccccc21 (single isomer, unassigned) [Example 16B, N-(2,3-DIHYDRO-1-METHYL-2-OXO-5-PHENYL-1H-1,4-BENZODIAZEPIN-3-YL)-2-HYDROXY-7,7-DIMETHYL-BICYCLO(2.2.1) HEPTANE-1-METHANESULFONAMIDE, ISOMER A AND ISOMER B]	–	–	IC50 (read-out: [^3 H]OT(uterus) IC50, inhibition of [^3H]oxytocin binding, rat uterus membranes): 1000 nM
CN1C(=O)[C@@H](NC(=O)CC2C(=O)C3(C)CCC2C3(C)C)N=C(c2ccccc2)c2ccccc21 (single isomer, unassigned) [Example 18]	–	39%	–
CN1C(=O)[C@H](NC(=O)CC2C(=O)C3(C)CCC2C3(C)C)N=C(c2ccccc2)c2ccccc21 (single isomer, unassigned) [Example 19]	–	82%	inhibition at 1 µM: 39%
CN1C(=O)[C@@H](NC(=O)CC2C3CCC(C)(C2O)C3(C)C)N=C(c2ccccc2)c2ccccc21 (single isomer, unassigned) [Example 22A]	–	50%	–
CN1C(=O)[C@@H](NC(=O)CC2C3CCC(C)(C2O)C3(C)C)N=C(c2ccccc2)c2ccccc21 (single isomer, unassigned) [Example 22B]	–	–	% inhibition @ μM conc. (10 μM) ([^3H]oxytocin binding, rat uterus membranes, @ 10 μM): 41%
CN1C(=O)C(NC(=O)NC2C3CC4CC(C3)CC2C4)N=C(c2ccccc2)c2ccccc21 (single isomer, unassigned; (+)) [Example 2, (+)-N-(2,3-DIHYDRO-1-METHYL-2-OXO-5-PHENYL-1H-1,4-BENZODIAZEPIN-3-YL)-N'-TRICYCLO(3.3.1.1(3,7))DEC-2-YL-UREA]	1600 nM	–	–
CN1C(=O)C(NS(=O)(=O)C[C@]23CC[C@H](CC2=O)C3(C)C)N=C(c2ccccc2)c2ccccc21 (stereo partly drawn) [Example 8, (1S)-(1.ALPHA.(RS),4.ALPHA.))-N-(2,3-DIHYDRO-1-METHYL-2-OXO-5-PHENYL-1H-1,4-BENZODIAZEPIN-3-YL)-7,7-DIMETHYL-2-OXO-BICYCLO(2.2.1)HEPTANE-1-METHANESULFONAMIDE]	4600 nM	–	–
CN1C(=O)C(NS(=O)(=O)C[C@@]23CC[C@@H](CC2=O)C3(C)C)N=C(c2ccccc2)c2ccccc21 (stereo partly drawn) [Example 9, (1R-(1.ALPHA.(RS),4.ALPHA.))-N-(2,3-DIHYDRO-1-METHYL-2-OXO-5-PHENYL-1H-1,4- BENZODIAZEPIN-3-YL)-7,7-DIMETHYL-2-OXO-BICYCLO(2.2.1)HEPTANE-1-METHANESULFONAMIDE]	3600 nM	–	–
CN1C(=O)[C@@H](NS(=O)(=O)C[C@@]23CC[C@@H](CC2=O)C3(C)C)N=C(c2ccccc2)c2ccccc21 [Example 14, (1R-(1.ALPHA.(R*),4.ALPHA.))-N-(2,3-DIHYDRO-1-METHYL-2-OXO-5-PHENYL-1H-1,4- BENZODIAZEPIN-3-YL)-7,7-DIMETHYL-2-OXO-BICYCLO(2.2.1)HEPTANE-1-METHANESULFONAMIDE]	–	52%	–
CN1C(=O)[C@H](NS(=O)(=O)C[C@@]23CC[C@@H](CC2=O)C3(C)C)N=C(c2ccccc2)c2ccccc21 [Example 15, (1R-(1.ALPHA.(S*),4.ALPHA.))-N-(2,3-DIHYDRO-1-METHYL-2-OXO-5-PHENYL-1H-1,4- BENZODIAZEPIN-3-YL)-7,7-DIMETHYL-2-OXO-BICYCLO(2.2.1)HEPTANE-1-METHANESULFONAMIDE]	1400 nM	–	–
CN1C(=O)[C@@H](NS(=O)(=O)C[C@@]23CC[C@@H](CC2O)C3(C)C)N=C(c2ccccc2)c2ccccc21 (stereo partly drawn) [Example 17, N-(2,3-DIHYDRO-1-METHYL-2-OXO-5-PHENYL-1H-1,4-BENZODIAZEPIN-3-YL)-2-HYDROXY-7,7-DIMETHYL-BICYCLO(2.2.1) HEPTANE-1-METHANESULFONAMIDE]	2500 nM	–	–
CN1C(=O)[C@H](NS(=O)(=O)C[C@]23CC[C@H](CC2=O)C3(C)C)N=C(c2ccccc2)c2ccccc21 [Example 20, (1S-(1.ALPHA.(S*),4.ALPHA.))-N-(2,3-DIHYDRO-1-METHYL-2-OXO-5-PHENYL-1H-1,4- BENZODIAZEPIN-3-YL)-7,7-DIMETHYL-2-OXO-BICYCLO(2.2.1)HEPTANE-1-METHANESULFONAMIDE]	–	80%	inhibition at 1 µM: 35%
CN1C(=O)[C@@H](NS(=O)(=O)C[C@]23CC[C@H](CC2=O)C3(C)C)N=C(c2ccccc2)c2ccccc21 [Example 21, (1S-(1.ALPHA.(R*), 4.ALPHA.))-N-(2,3-DIHYDRO-1-METHYL-2-OXO-5-PHENYL-1H-1,4-BENZODIAZEPIN-3-YL)-7,7-DIMETHYL-2-OXO-BICYCLO(2.2.1)HEPTANE-1-METHANESULFONAMIDE]	–	15%	–
CN1C(=O)[C@H](NC(=O)C2C(=O)C3(C)CCC2C3(C)C)N=C(c2ccccc2)c2ccccc21 (stereo partly drawn) [Example 23, [3(R)-N-(2,3-DIHYDRO-1-METHYL-2-OXO-5-PHENYL-1H-1,4-BENZODIAZEPIN-3-YL)]-2- OXO-1,7,7-TRIMETHYLBICYCLO(2.2.1)HEPTANE-3-CARBOXAMIDE]	–	85%	inhibition at 1 µM: 35%
